Measured values published in patent US6627651B1, “Cyclic compounds and uses thereof” (Takeda Chemical Industries, Ltd., priority 1999, dated 2003).

Key:
[1] = biological target: T1, human CCR5 (Homo sapiens, UniProt P51681); experiment: CCR5-binding inhibition: [125I]-RANTES binding to CHO/CCR5 cells; details: test compound 1 μM; ligand [125I]-RANTES 100 pM; CHO/CCR5 strains; room temperature, 30 minutes
T1 construct: expressed in transfected cells
Method: After CHO-K1 cells, which were grown in a 750-ml, tissue culture flask (Beckton, Dickinson and Company) using Ham F12 medium (Nihon Pharmaceutical Co., Ltd.) containing 10% fetal calf serum (Life Technologies Oriental, Inc.), were removed from the flask with 0.5/L trypsin-0.2 g/L EDTA (Life Technologies Oriental, Inc.), the cells were washed with PBS (Life Technologies Oriental, Inc.), were centrifuged (1000 rpm, 5 minutes) and were suspended in PBS. Next, DNA was introduced into the cells by the use of Gene Pulser (Bio-Rad Laboratories Inc.) under the following conditions. In other words, 8×10^6 cells and 10 μg human CCR5 expression plasmid pCKR5 were added into a cuvette with a 0.4-cm gap, and the cells were electroporated at 0.25 kV under a capacitance of 960 μF. Subsequently, the cells were transferred to Ham F12 medium containing 10% fetal calf serum, and were cultivated for 24 hours. The cells were then removed from the flask again for centrifugation, were then suspended in Ham F12 medium containing 10% fetal serum albumin containing geneticin (Life Technologies Oriental, Inc.) at a final concentration of 500 μg/ml, were diluted to 10^4 cells/ml and were seeded into 96-well plates (Beckton, Dickinson and Company) to obtain geneticin-resistant strains.
Next, after the thus-obtained geneticin-resistant strains were cultivated in a 96-well plate (Beckton, Dickinson and Company), cells expressing CCR5 were selected from the resistant strains. In other words, the binding reaction was carried out at room temperature for 40 minutes in an assay buffer (Ham F12 medium containing 0.5% BSA and 20 mM HEPES (Wako Pure Chemical Industries, Ltd.)) that is supplemented with 200 pM [^125I]-RANTES (Amersham plc) as a ligand, and the cells were washed with ice-cold PBS, were then stirred after adding 50 μl/well of 1M NaOH and were counted for radioactivity in a γ-counter to select CHO/CCR5 strains, the cells to which the ligand was specifically bound.
CHO/CCR5 strains were seeded into 96-well microplates at a density of 5×10^4 cells/well, and were cultivated for 24 hours. After the culture fluid was removed by suction, the assay buffer containing a test compound (1 μM) was added to each well, and a ligand [^125I]-RANTES (Amersham Corporation) was added to a final concentration of 100 pM, after which the reaction was carried out at room temperature for 30 minutes. Next, after the assay buffer was removed by suction, the cells were washed twice with ice-cold PBS. Subsequently, 200 μl of MicroScint-20 (Packard Industry Company, Inc.) was added to each well, which was counted for radioactivity in a Top Count (Packard Industry Company, Inc.).
Percentages of CCR5-binding inhibition by test compounds were determined according to the method described above.

T1 sequence (P51681 whole entry): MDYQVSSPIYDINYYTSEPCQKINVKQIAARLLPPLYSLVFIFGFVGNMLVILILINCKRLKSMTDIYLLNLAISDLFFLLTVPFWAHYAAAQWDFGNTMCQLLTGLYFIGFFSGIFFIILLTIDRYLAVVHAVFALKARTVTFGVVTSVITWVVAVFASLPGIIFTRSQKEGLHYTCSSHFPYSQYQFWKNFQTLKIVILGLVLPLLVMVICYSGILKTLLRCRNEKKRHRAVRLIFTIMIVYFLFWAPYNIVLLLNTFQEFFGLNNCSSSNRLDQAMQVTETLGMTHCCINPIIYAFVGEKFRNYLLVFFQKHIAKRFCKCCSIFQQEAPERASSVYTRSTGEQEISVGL

| Structure (SMILES) | Inhibition of binding (%) [1] | inhibition at 1 µM [1] | melting point |
| --- | --- | --- | --- |
| CCCOc1ccc(CCOc2ccc3c(c2)C=C(C(=O)Nc2ccc(CN(C)C4CCOCC4)cc2)CCS3(=O)=O)cc1 [Compound 19, N-[4-[N-methyl-N-(tetrahydropyran-4-yl)aminomethyl]phenyl]-7-[4-(propoxyphenethyl)oxy]-1,1-dioxo-2,3-dihydro-1-benzothiepine-4-carboxamide] | 86% |  |  |
| CCCOc1cccc(COc2ccc3c(c2)C=C(C(=O)Nc2ccc(CN(C)C4CCOCC4)cc2)CCS3(=O)=O)c1 [Compound 20] | 94% |  |  |
| CCCOc1ccccc1COc1ccc2c(c1)C=C(C(=O)Nc1ccc(CN(C)C3CCOCC3)cc1)CCS2(=O)=O [Compound 21, N-[4-[N-methyl-N-(tetrahydropyran-4-yl)aminomethyl]phenyl]-7-[(2-propoxybenzyl)oxy]-1,1-dioxo-2,3-dihydro-1-benzothiepine-4-carboxamide] |  | 98% | 190 to 192 °C |
| Cc1ccc(-c2ccc3c(c2)C=C(C(=O)NC2CCN(C4CCOCC4)CC2)CCO3)cc1 [Compound 56, N-(1-(tetrahydropyran-4-yl)piperidin-4-yl)-7-(4-methylphenyl)-2,3-dihydro-1-benzooxepine-4-carboxamide] |  | 74% | 199 to 204 °C (dec.) |
| Cc1ccc(-c2ccc3c(c2)C=C(C(=O)Nc2ccc(CC4=NCCN4)cc2)CCO3)cc1 [Compound 94] | 76% |  |  |

Further lines, results first:

| Inhibition of binding (%) [1] | inhibition at 1 µM [1] | melting point | Structure (SMILES) |
| --- | --- | --- | --- |
| 89% |  |  | CCCOc1ccc(COc2ccc3c(c2)C=C(C(=O)Nc2ccc(CN(C)C4CCOCC4)cc2)CCS3(=O)=O)cc1 [Compound 100] |
|  | 86% | 175 to 176 °C | CCCOCCOc1ccc(COc2ccc3c(c2)C=C(C(=O)Nc2ccc(CN(C)C4CCOCC4)cc2)CCS3(=O)=O)cc1 [Compound 108, N-[4-[[N-methyl-N-(tetrahydropyran-4-yl)amino]methyl]phenyl]-7-[[4-(2-propoxyethoxy)benzyl]oxy]-1,1-dioxo-2,3-dihydro-1-benzothiepine-4-carboxamide] |
|  | 82% | 178 to 181 °C | CCCOc1ccc(CCCOc2ccc3c(c2)C=C(C(=O)Nc2ccc(CN(C)C4CCOCC4)cc2)CCS3(=O)=O)cc1 [Compound 121, N-[4-[[N-methyl-N-(tetrahydropyran-4-yl)amino]methyl]phenyl]-7-[3-(4-propoxyphenyl)propoxy]-1,1-dioxo-2,3-dihydro-1-benzothiepine-4-carboxamide] |
